In ChEMBL document CHEMBL4715699, “Design, synthesis and biological evaluation of 1,3,6-trisubstituted β-carboline derivatives for cytotoxic and anti-leishmanial potential” (Bioorg Med Chem Lett, 2016):
The source made the active and inactive calls. The rule behind the calls is not given here.

What was measured:
MCF7 [1] = assay: Induction of apoptosis in human MCF7 cells at 10 uM measured after 6 hrs by Annexin V/Propidium iodide staining based confocal microscopy; assay type: functional, cell-based
Leishmania donovani = assay: Antileishmanial activity against Leishmania donovani MHOM/80/IN/Dd8 promastigotes infected in THP-1 cells assessed as measured after 48 hrs by MTT assay; assay type: functional, organism-based
MCF7 [2] = assay: Cytotoxicity against human MCF-7 cells assessed as reduction in cell viability at 10 uM measured after 24 hrs by MTT assay relative to control; assay type: functional, cell-based; details: MCF7, 24 h
HeLa = assay: Cytotoxicity against human HeLa cells assessed as reduction in cell viability at 10 uM measured after 24 hrs by MTT assay relative to control; assay type: functional, cell-based
[3] = Selectivity index, ratio of IC50 for differentiated human THP-1 cells to IC50 for Leishmania donovani MHOM/80/IN/Dd8 promastigotes; assay type: toxicity; details: differentiated THP-1 cells, read-out: Ratio IC50
L132 = assay: Cytotoxicity against human L-132 cells assessed as reduction in cell viability at 10 uM measured after 24 hrs by MTT assay relative to control; assay type: cell-based; details: L132, 24 h
A549 [4] = assay: Induction of apoptosis in human A549 cells at 10 uM measured after 6 hrs by Annexin V/Propidium iodide staining based confocal microscopy; assay type: functional, cell-based
A549 [5] = assay: Cytotoxicity against human A-549 cells assessed as reduction in cell viability at 10 uM measured after 24 hrs by MTT assay relative to control; assay type: functional, cell-based; details: A549, 24 h
THP-1 = assay: Cytotoxicity against differentiated human THP-1 cells measured after 48 hrs by MTT assay; assay type: cell-based; details: THP-1, 48 h
HepG2 = assay: Cytotoxicity against human HepG2 cells assessed as reduction in cell viability at 10 uM measured after 24 hrs by MTT assay relative to control; assay type: functional, cell-based; details: HepG2, 24 h
[6] = Solubility of the compound in 20% DMSO; assay type: physicochemical
[7] = Inhibition of IKK in human HeLa S3 cells using biotinylated IkaapaB-alpha by ELISA phosphorylation assay; assay type: cell-based
[8] = Inhibition of IKK (unknown origin); design: species or system Homo sapiens
[9] = Leishmania donovani, MHOM/80/IN/Dd8, THP-1, 48 h, read-out: IC50

| solubility [6] | Compound | IC50 (Leishmania donovani; [9]) | IC50 (Leishmania donovani) | other results |
| --- | --- | --- | --- | --- |
| – | COC(=O)c1cc2c([nH]c3ccc(NC(=O)c4ccc(C(C)(C)C)cc4)cc32)c(C)n1 | 68 µM | – | Activity (MCF7 [1]): Active; IC50 (MCF7 [2]): 4.17 µM; IC50 (HeLa): 3.59 µM; selectivity ratio [3]: 0.47; IC50 (L132): 3.26 µM; Activity (A549 [4]): Active; IC50 (A549 [5]): 4.72 µM; IC50 (THP-1): 32 µM; IC50 (HepG2): 3.65 µM |
| – | COC(=O)c1cc2c([nH]c3ccc(NC(=O)c4ccco4)cc32)c(C)n1 | > 100 µM | – | – |
| – | COC(=O)c1cc2c([nH]c3ccc(NC(=O)C4CCCCC4)cc32)c(C)n1 | 23.5 µM | – | selectivity ratio [3]: 3.27; IC50 (THP-1): 77 µM |
| – | COC(=O)c1cc2c([nH]c3ccc(NC(=O)c4cccs4)cc32)c(C)n1 | > 100 µM | – | – |
| – | COC(=O)c1cc2c([nH]c3ccccc32)c(C)n1 | 9 µM | – | IC50 (MCF7 [2]): 45 µM; IC50 (HeLa): 35.6 µM; selectivity ratio [3]: > 11.1; IC50 (L132): 39.3 µM; IC50 (A549 [5]): 37.8 µM; IC50 (THP-1): > 100 µM; IC50 (HepG2): 39.6 µM |
| – | COC(=O)c1cc2c([nH]c3ccc(NC(=O)c4ccccc4C(F)(F)F)cc32)c(C)n1 | > 100 µM | – | – |
| – | COC(=O)c1cc2c([nH]c3ccc(NC(C)=O)cc32)c(C)n1 | > 100 µM | – | – |
| – | COC(=O)c1cc2c([nH]c3ccc(NC(=O)c4ccccc4)cc32)c(C)n1 | > 100 µM | – | – |
| Insoluble | COC(=O)c1cc2c([nH]c3ccc(NC(=O)c4ccc(Br)cc4)cc32)c(C)n1 | – | Nd(Insoluble) | – |
| Insoluble | COC(=O)c1cc2c([nH]c3ccc(NC(=O)/C=C/c4ccccc4)cc32)c(C)n1 | – | Nd(Insoluble) | – |
| Insoluble | COC(=O)c1cc2c([nH]c3ccc(NC(=O)Oc4ccc([N+](=O)[O-])cc4)cc32)c(C)n1 | – | Nd(Insoluble) | – |
| Insoluble | CCCCCCCCCCCC(=O)Nc1ccc2[nH]c3c(C)nc(C(=O)OC)cc3c2c1 | – | Nd(Insoluble) | – |
| – | COC(=O)c1cc2c([nH]c3ccc([N+](=O)[O-])cc32)c(C)n1 | > 100 µM | – | – |
| Insoluble | COC(=O)c1cc2c([nH]c3ccc(NC(=O)c4ccc(C(F)(F)F)cc4)cc32)c(C)n1 | – | Nd(Insoluble) | – |
| Insoluble | COC(=O)c1cc2c([nH]c3ccc(NC(=O)c4ccc(C)cc4)cc32)c(C)n1 | – | Nd(Insoluble) | – |
| Insoluble | COC(=O)c1cc2c([nH]c3ccc(NC(=O)c4cc(C(F)(F)F)cc(C(F)(F)F)c4)cc32)c(C)n1 | – | Nd(Insoluble) | Activity (MCF7 [1]): Active; IC50 (MCF7 [2]): 13.4 µM; IC50 (HeLa): 5.3 µM; IC50 (L132): 11.2 µM; Activity (A549 [4]): Active; IC50 (A549 [5]): 15.5 µM; IC50 (HepG2): 6.15 µM |
| Insoluble | COC(=O)c1cc2c([nH]c3ccc(NC(=O)c4ccc(OC)cc4)cc32)c(C)n1 | – | Nd(Insoluble) | – |
| – | Clc1cc2c([nH]c3cnccc32)c(Cl)c1OCC1CC1 | – | – | IC50 [7]: 0.08 µM |
| – | COC(=O)c1cc2c([nH]c3ccc(NC(=O)c4cc(C)oc4C)cc32)c(C)n1 | > 100 µM | – | – |
| – | COC(=O)c1cc2c([nH]c3ccc(N)cc32)c(C)n1 | > 100 µM | – | – |
| – | CCCCC(=O)Nc1ccc2[nH]c3c(C)nc(C(=O)OC)cc3c2c1 | > 100 µM | – | – |
| Insoluble | COC(=O)c1cc2c([nH]c3ccc(NC(=O)c4ccc5ccccc5c4)cc32)c(C)n1 | – | Nd(Insoluble) | – |
| – | COC(=O)c1cc2c([nH]c3ccc(NC(=O)c4cc(OC)c(OC)c(OC)c4)cc32)c(C)n1 | 100 µM | – | – |
| – | COc1ccc2[nH]c3cnccc3c2c1Br | – | – | IC50 [8]: 1 µM |
| – | CC(=O)O[C@@]12CO[C@@H]1C[C@H](O)[C@@]1(C)C(=O)[C@H](O)C3=C(C)[C@@H](OC(=O)[C@H](O)[C@@H](NC(=O)OC(C)(C)C)c4ccccc4)C[C@@](O)([C@@H](OC(=O)c4ccccc4)[C@H]21)C3(C)C [DOCETAXEL ANHYDROUS] | – | – | IC50 (MCF7 [2]): 3.6 µM; IC50 (HeLa): 3.23 µM; IC50 (L132): 1.68 µM; IC50 (A549 [5]): 3.41 µM; IC50 (HepG2): 2.86 µM |
| – | CCCCCCCCCCCCCCCCOP(=O)([O-])OCC[N+](C)(C)C [MILTEFOSINE] | 11.9 µM | – | selectivity ratio [3]: 2.64; IC50 (THP-1): 31.5 µM |
| – | COCC(=O)Nc1ccc2[nH]c3c(C)nc(C(=O)OC)cc3c2c1 | > 100 µM | – | – |
| Insoluble | COC(=O)c1cc2c([nH]c3ccc(NC(=O)COc4ccccc4)cc32)c(C)n1 | – | Nd(Insoluble) | – |
